From patent US20220315895A1, “METHODS OF MAKING OLIGOPOTENT AND UNIPOTENT PRECURSORS” (Transfusion Health, LLC, priority 2019, published 2022)

Assays:
[1] = test system: expanded cord blood CD34+ cells, erythroid lineage (CD71, CD235a); assay: Erythroid Differentiation Culture after Expansion Culture (Example 38); assay type: cell-based, human; details: for cells with markers of erythrocyte differentiation (CD71 and/or CD235a), of total cells: seven days Erythroid Differentiation Culture; for cells with markers of erythrocyte differentiation (CD71 and/or CD235a), of total cells / cells positive for CD235a (maturing erythrocyte differentiation): average
Description: At days 21 and 63, CD34+ enriched cells were placed into Differentiation Cultures, described below.
Differentiation cultures were initiated using Erythroid, Myeloid (granulocyte and monocyte), and Megakaryocyte HemaTox kits from STEMCELL technologies following the manufacturer's instructions. In brief, lineage media was prepared by adding cytokine cocktails for erythrocyte (SCF, IL-3, and EPO), myeloid (i.e. mixed granulocyte/monocyte, SCF, TPO, G-CSF, and GM-CSF) or megakaryocyte (SCF, IL-6, IL-9 and TPO) lineage differentiation to their respective kits' media, then adding approximately 30-100 CD34+ cells for erythroid or myeloid cultures, or 300-1000 CD34+ cells for megakaryoid cultures. Exact cell numbers plated were quantified for later analysis. All incubations for Differentiation Culture took place at 3% oxygen (controlled by nitrogen) and 5% CO2.
Following seven days of erythroid or myeloid cultures, or ten days for megakaryoid cultures, differentiated cell output was quantified using flow cytometry. Erythroid output was quantified using anti-CD71 and anti-CD235a antibodies, and megakaryocyte lineage output was quantified using anti-CD41 and anti-CD42b antibodies. Granulocyte and monocyte lineage outputs were assessed in tandem, using CD14 and CD15 antibodies, with granulocyte lineage cells being CD15+/CD14−, and monocyte lineage cells being CD14+/CD15−.
A number of quantities were calculated to assess the effect of expansion of CD34+ cells in the +Formula I Condition on the output of lineage differentiated cells. “Per-Assayed-CD34+ Cell Output” describes the output of differentiated cells per CD34+ cell placed into Differentiation Culture, and is calculated by dividing the total number of lineage-positive cells by the input CD34+ cell number quantified at Differentiation Culture initiation at day 1, 21, or 63. “Per-expanded-day-1-CD34+ cell output” describes the number of differentiated cells of a given lineage that may be produced from a single CD34+ cell following both Expansion Cell Culture (if expanded) followed by Differentiation Culture, and is calculated by multiplying Per-Assayed-CD34+ Cell Output by the fold expansion of CD34+ cells from day 1 to the day of analysis, either day 21 or day 63. “Per-banked-CBU lineage output” describes the number of differentiated cells of a given lineage that may be produced using the CD34+ cells from a full cord blood unit, and is calculated by multiplying the per-expanded-day-1-CD34+ cell output by 2×10^6, a conservative estimate the number of CD34+ cells in an average cord held in a public cord blood bank (Sun, J., Allison, J., McLaughlin, C., Sledge, L., Waters-Pick, B., Wease, S., and Kurtzberg, J. (2010). Differences in quality between privately and publicly banked umbilical cord blood units: a pilot study of autologous cord blood infusion in children with acquired neurologic disorders. Transfusion (Paris) 50, 1980-1987). This per-banked-CBU lineage output provides the ability to gauge the number of therapeutic units that may be derived from a single cord blood unit available as input to the manufacturing of a therapeutic product, and enables comparison to current state-of-the-art methods. Where relevant therapeutic dose benchmarks were available, this per-banked-CBU lineage output was used to calculate the number of therapeutic units that may be prepared from a single banked CBU unit. We calculated therapeutic units for granulocyte precursors, using 50 billion (5×10^10) cells per dose as a conservative benchmark (Valentini, C. G., Farina, F., Pagano, L., and Teofili, L. (2017). Granulocyte Transfusions: A Critical Reappraisal. Biol. Blood Marrow Transplant. 23, 2034-2041). […]

[2] = test system: expanded cord blood CD34+ cells, lymphoid progenitors; assay: Lymphoid Progenitor Differentiation Culture after Expansion Culture (Example 41); assay type: cell-based, human; details: for Fold Enhancement (vs. unexpanded) of CD10+ lineage output: 14 days Lymphoid Differentiation Culture
Text: Lymphoid Progenitor Differentiation Cultures (L Diff Cultures) were initiated prior to culture in +Formula I (Day 1 L Diff Culture), following 14 days of culture in +Formula I (14-day +Formula I-expanded L Diff Culture), following 14 days of culture in control conditions (14-day DMSO-expanded L Diff Culture) or following 21 days of culture in +Formula I (21-day +Formula I-expanded L Diff Culture).
12-well non-TC-treated plates were coated with StemSpan Lymphoid Differentiation Coating Material (STEMCELL Technologies) by incubation for two hours at room temperature. Immediately prior to initiation of L Diff Culture, wells were washed with PBS.
Purified CD34+ cells were plated at 20,000 cells per well, in Lymphoid Progenitor Expansion Medium (“LPEM”), comprising StemSpan SFEM II medium (STEMCELL Technologies) with StemSpan Lymphoid Progenitor Expansion Supplement (STEMCELL Technologies). Cells were plated in duplicate, in 500 μl/well, then placed in a humidified incubator at atmospheric oxygen and 5% CO2. Exact cell numbers dispensed per well were quantified with flow cytometry for later calculations.
On days three or five, an additional 500 μl/well of LPEM was added, then on days seven and eleven, half of the media was removed and replaced with fresh LPEM.
At seven and fourteen days, cells were analyzed via flow cytometry to quantify lymphoid lineage phenotypes of CD7+/CD5−, CD5+/CD7− and CD7+/CD5+, as well as presence of maturing B cells (CD19+), T cells (CD3+) or NK cells (CD56+).
“Per-Assayed-CD34+ Cell Output” describes the output of differentiated cells per CD34+ cell placed into Differentiation Culture, and is calculated by dividing the Corrected Count of lineage-positive cells by the number of CD34+ cells placed into quantified at Differentiation Culture initiation following 1, 14, 28, 42 or 64 days in Expansion Culture.
“Scaled Output” (or Scaled Output per CD34+ cell) describes the number of differentiated cells of a given lineage that may be produced from a single CD34+ cell following both Expansion Cell Culture (if expanded) followed by Differentiation Culture. This quantity is calculated by multiplying Per-Assayed-CD34+ Cell Output by the Fold Expansion of CD34+ cells from day 1 to the day of Differentiation Culture initiation (day 14, 28, 42 or 64). This quantity is synonymous with “per-expanded-dl-CD34+ cell output” used in Example 38 above.
“Fold Enhancement (vs. unexpanded)” was calculated to fully capture the benefit of Expansion Culture in +Formula I Conditions prior to Differentiation Culture. This quantity was calculated by dividing the Scaled Output output of a given cell population by the Per-Assayed-CD34+ Cell Output of that population from unexpanded cells placed into differentiation culture, as in the equation below. Each fold increase was calculated relative to the same number of days in differentiation culture, e.g. the fold increase of cells differentiated for six days was calculated by dividing the scaled output of expanded cells differentiated for six days by the output of unexpanded cells differentiated for six days. In the case of cells differentiated for 14 days, an exact match in unexpanded cells was not available, so output at differentiation day 13 was used as a denominator.

[3] = 14 days in +Formula I Expansion Culture
[4] = 21 days in +Formula I Expansion Culture

CC(C)(C)C(=O)Nc1ccc2c(c1)C(O)c1ccccc1-2 (stereo not drawn) [Compound 1.010]
fold increase of per-expanded-day-1-CD34+ cell output, erythroid lineage, over uncultured cells ([1]; +Formula I expansion (Compound 1.010 8 μM) to day 21, then 7 days differentiation): 301 fold | fold increase of per-expanded-day-1-CD34+ cell output, erythroid lineage, over uncultured cells ([1]; +Formula I expansion to day 63, then 7 days differentiation): 91,000 fold | CD71−/CD235a+ cells (mature erythrocytes) ([1]; expanded 21 or 63 days in Formula I condition, day seven of Erythroid Differentiation Culture): No CD71−/CD235a+ cells were detected | cells with markers of erythrocyte differentiation (CD71 and/or CD235a), of total cells ([1]; expanded 21 days in Formula I Condition): 50% | cells positive for CD235a (maturing erythrocyte differentiation) ([1]; expanded 21 days in Formula I condition, day seven of Erythroid Differentiation Culture): 46% | cells with markers of erythrocyte differentiation (CD71 and/or CD235a), of total cells ([1]; expanded 63 days in Formula I Condition): 75% | cells positive for CD235a (maturing erythrocyte differentiation) ([1]; expanded 63 days in Formula I condition, day seven of Erythroid Differentiation Culture): 86% | Fold Enhancement (vs. unexpanded) of CD7+/CD5+ lineage output [2, 3]: 5.8 fold | Fold Enhancement (vs. unexpanded) of CD7+/CD5− lineage output [2, 3]: 6.3 fold | Fold Enhancement (vs. unexpanded) of CD7−/CD5+ lineage output [2, 3]: 11 fold | Fold Enhancement (vs. unexpanded) of CD10+ lineage output [2, 3]: 5 fold | Fold Enhancement (vs. unexpanded) of CD7+/CD5+ lineage output [2, 4]: 238 fold | Fold Enhancement (vs. unexpanded) of CD7+/CD5− lineage output [2, 4]: 46 fold | Fold Enhancement (vs. unexpanded) of CD7−/CD5+ lineage output [2, 4]: 180 fold | Fold Enhancement (vs. unexpanded) of CD10+ lineage output [2, 4]: 37 fold
